Laboratory results as given in patent US7763627B2, “Tie-2 modulators and methods of use” (Exelixis, Inc., priority 2003, dated 2010).

biological target: Tie-2 (Homo sapiens, UniProt Q02763); assay: Tie-2 tyrosine kinase inhibition (ATP consumption by luciferase/luciferin chemiluminescence or 33P-ATP incorporation into pEY substrate); format: biochemical; conditions: human enzyme Tie-2; inhibition given as class symbol
Experimental: Tyrosine kinase activity is determined by 1) measurement of kinase-dependent ATP consumption by in the presence of a generic substrate such as polyglutamine, tyrosin (pEY), by luciferase/luciferin-mediated chemiluminescence or; 2) incorporation of radioactive phosphate derived from ^33P-ATP into a generic substrate which has been adsorbed onto the well surface of polystyrene microtiter plates. Phosphorylated substrate products are quantified by scintillation spectrometry.
Inhibition is indicated as IC50 with following key: A=IC50 less than 50 nM, B=IC50 greater than 50 nM, but less than or equal to 1000 nM, C=IC50 greater than 1000 nM, but less than 10,000 nM, and D=IC50 10,000 nM or greater. The abbreviation for human enzyme, Tie-2, is defined as tyrosine kinase with immunoglobulin and EGF repeats.

Chain of Tie-2 (Q02763 23-1124): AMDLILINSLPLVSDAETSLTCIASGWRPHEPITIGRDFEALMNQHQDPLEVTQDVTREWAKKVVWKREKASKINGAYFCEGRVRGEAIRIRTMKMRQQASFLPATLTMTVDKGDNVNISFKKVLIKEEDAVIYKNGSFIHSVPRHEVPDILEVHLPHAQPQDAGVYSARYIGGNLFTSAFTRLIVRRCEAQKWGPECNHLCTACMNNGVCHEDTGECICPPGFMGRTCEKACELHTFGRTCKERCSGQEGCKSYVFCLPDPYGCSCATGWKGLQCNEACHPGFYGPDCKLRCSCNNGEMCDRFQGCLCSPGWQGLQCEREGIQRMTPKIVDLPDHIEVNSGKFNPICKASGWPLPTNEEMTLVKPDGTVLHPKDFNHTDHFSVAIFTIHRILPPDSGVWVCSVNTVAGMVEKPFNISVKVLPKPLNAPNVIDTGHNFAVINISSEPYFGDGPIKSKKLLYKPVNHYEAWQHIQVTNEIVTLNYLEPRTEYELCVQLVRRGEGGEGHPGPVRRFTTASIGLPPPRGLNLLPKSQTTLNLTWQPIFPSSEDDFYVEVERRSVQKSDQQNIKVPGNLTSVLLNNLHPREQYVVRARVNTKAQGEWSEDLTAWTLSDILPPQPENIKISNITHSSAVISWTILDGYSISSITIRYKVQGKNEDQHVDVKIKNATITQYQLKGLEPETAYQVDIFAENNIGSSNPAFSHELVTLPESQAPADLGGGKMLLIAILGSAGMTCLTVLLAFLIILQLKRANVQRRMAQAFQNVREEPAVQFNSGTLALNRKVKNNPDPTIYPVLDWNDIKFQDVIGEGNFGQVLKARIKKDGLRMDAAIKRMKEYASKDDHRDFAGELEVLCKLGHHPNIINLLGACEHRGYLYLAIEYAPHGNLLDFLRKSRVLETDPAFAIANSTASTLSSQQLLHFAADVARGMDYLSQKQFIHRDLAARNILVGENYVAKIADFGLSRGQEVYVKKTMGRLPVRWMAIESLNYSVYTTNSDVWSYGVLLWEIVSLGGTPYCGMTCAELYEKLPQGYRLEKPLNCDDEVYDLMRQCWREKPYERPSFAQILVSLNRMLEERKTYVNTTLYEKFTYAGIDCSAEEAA

| Structure (SMILES) | IC50 |
| --- | --- |
| Fc1ccc(CNc2nc(-c3ccncc3)nc3ccccc23)cc1 [Compound 7, N-[(4-fluorophenyl)methyl]-2-pyridin-4-ylquinazolin-4-amine] | 1 to 10 µM |
| C[C@H](O)CNc1nc(-c2ccncc2)nc2ccccc12 [Compound 42, (2S)-1-[(2-pyridin-4-ylquinazolin-4-yl)amino]propan-2-ol] | ≥ 10 µM |
| O[C@@H]1Cc2ccccc2[C@@H]1Nc1nc(-c2ccncc2)nc2ccc(Br)cc12 [Compound 45, (1S,2R)-1-[(6-bromo-2-pyridin-4-ylquinazolin-4-yl)amino]-2,3-dihydro-1H-inden-2-ol] | < 0.05 µM |
| CSc1nccc(-c2nc(N[C@H]3c4ccccc4C[C@H]3O)c3ccccc3n2)n1 [Compound 65, (1S,2R)-1-({2-[2-(methylthio)pyrimidin-4-yl]quinazolin-4-yl}amino)-2,3-dihydro-1H-inden-2-ol] | ≥ 10 µM |
| Oc1ccc(N2CCN(c3nc(-c4ccncc4)nc4ccccc34)CC2)cc1 [Compound 11, 4-[4-(2-pyridin-4-ylquinazolin-4-yl)piperazin-1-yl]phenol] | ≥ 10 µM |
| c1ccc2c(N[C@H]3CCCNC3)nc(-c3ccncc3)nc2c1 [Compound 50, N-[(3S)-piperidin-3-yl]-2-pyridin-4-ylquinazolin-4-amine] | ≥ 10 µM |
| OC[C@H](Cc1ccccc1)Nc1nc(-c2ccncc2)nc2ccccc12 [Compound 61, (2S)-3-phenyl-2-[(2-pyridin-4-ylquinazolin-4-yl)amino]propan-1-ol] | 1 to 10 µM |
| CC(C)[C@H](CO)Nc1nc(-c2ccncc2)nc2ccccc12 [Compound 53, (2R)-3-methyl-2-[(2-pyridin-4-ylquinazolin-4-yl)amino]butan-1-ol] | ≥ 10 µM |
| CC(C)[C@@H](CO)Nc1nc(-c2ccncc2)nc2ccccc12 [Compound 54, (2S)-3-methyl-2-[(2-pyridin-4-ylquinazolin-4-yl)amino]butan-1-ol] | 1 to 10 µM |
| c1ccc(CO[C@H]2CCC[C@@H]2Nc2nc(-c3ccncc3)nc3ccccc23)cc1 [Compound 22, N-{(1S,2S)-2-[(phenylmethyl)oxy]cyclopentyl}-2-pyridin-4-ylquinazolin-4-amine] | ≥ 10 µM |
| CC(C)(C)OC(=O)N1CCC(Nc2nc(-c3ccncc3)nc3ccccc23)CC1 [Compound 19, 1,1-dimethylethyl 4-[(2-pyridin-4-ylquinazolin-4-yl)amino]piperidine-1-carboxylate] | 1 to 10 µM |
| CC(C)(C)OC(=O)N1CCN(c2nc(-c3ccncc3)nc3ccccc23)CC1 [Compound 14, 1,1-dimethylethyl 4-(2-pyridin-4-ylquinazolin-4-yl)piperazine-1-carboxylate] | ≥ 10 µM |
| OC[C@@H](O)CNc1nc(-c2ccncc2)nc2ccccc12 [Compound 39, (2S)-3-[(2-pyridin-4-ylquinazolin-4-yl)amino]propane-1,2-diol] | ≥ 10 µM |
| OC[C@@H](Cc1ccccc1)Nc1nc(-c2ccncc2)nc2ccccc12 [Compound 60, (2R)-3-phenyl-2-[(2-pyridin-4-ylquinazolin-4-yl)amino]propan-1-ol] | ≥ 10 µM |
| c1ccc2c(NCCN3CCCC3)nc(-c3ccncc3)nc2c1 [Compound 2, 2-pyridin-4-yl-N-(2-pyrrolidin-1-ylethyl)quinazolin-4-amine] | ≥ 10 µM |

Now from value to compound:

| IC50 | Structure (SMILES) |
| --- | --- |
| ≥ 10 µM | O[C@@H]1Cc2ccccc2[C@@H]1Nc1nc(-c2ccccc2)nc2ccccc12 [Compound 26, (1S,2R)-1-[(2-phenylquinazolin-4-yl)amino]-2,3-dihydro-1H-inden-2-ol] |
| ≥ 10 µM | CCc1cc(-c2nc(N[C@H]3c4ccccc4C[C@H]3O)c3ccccc3n2)ccn1 [Compound 43, (1S,2R)-1-{[2-(2-ethylpyridin-4-yl)quinazolin-4-yl]amino}-2,3-dihydro-1H-inden-2-ol] |
| 1 to 10 µM | O[C@@H]1Cc2ccccc2[C@@H]1Nc1nc(-c2cccnc2)nc2ccccc12 [Compound 33, (1S,2R)-1-[(2-pyridin-3-ylquinazolin-4-yl)amino]-2,3-dihydro-1H-inden-2-ol] |
| ≥ 10 µM | O[C@H]1Cc2ccccc2[C@H]1Nc1nc(-c2cccnc2)nc2ccccc12 [Compound 34, (1R,2S)-1-[(2-pyridin-3-ylquinazolin-4-yl)amino]-2,3-dihydro-1H-inden-2-ol] |
| ≥ 10 µM | Nc1ccncc1-c1nc(N[C@H]2c3ccccc3C[C@H]2O)c2ccccc2n1 [Compound 59, (1S,2R)-1-{[2-(4-aminopyridin-3-yl)quinazolin-4-yl]amino}-2,3-dihydro-1H-inden-2-ol] |
| ≥ 10 µM | Oc1ccc(-c2nc(N[C@H]3c4ccccc4C[C@H]3O)c3ccccc3n2)cn1 [Compound 64, 5-(4-{[(1S,2R)-2-hydroxy-2,3-dihydro-1H-inden-1-yl]amino}quinazolin-2-yl)pyridin-2-ol] |
| 1 to 10 µM | COc1ccc(-c2nc(N[C@H]3c4ccccc4C[C@H]3O)c3ccccc3n2)cn1 [Compound 49, (1S,2R)-1-({2-[6-(methyloxy)pyridin-3-yl]quinazolin-4-yl}amino)-2,3-dihydro-1H-inden-2-ol] |
